The target of assay [1] is T1, pendrin (Homo sapiens, UniProt O43511).
T1 sequence (O43511 1-780): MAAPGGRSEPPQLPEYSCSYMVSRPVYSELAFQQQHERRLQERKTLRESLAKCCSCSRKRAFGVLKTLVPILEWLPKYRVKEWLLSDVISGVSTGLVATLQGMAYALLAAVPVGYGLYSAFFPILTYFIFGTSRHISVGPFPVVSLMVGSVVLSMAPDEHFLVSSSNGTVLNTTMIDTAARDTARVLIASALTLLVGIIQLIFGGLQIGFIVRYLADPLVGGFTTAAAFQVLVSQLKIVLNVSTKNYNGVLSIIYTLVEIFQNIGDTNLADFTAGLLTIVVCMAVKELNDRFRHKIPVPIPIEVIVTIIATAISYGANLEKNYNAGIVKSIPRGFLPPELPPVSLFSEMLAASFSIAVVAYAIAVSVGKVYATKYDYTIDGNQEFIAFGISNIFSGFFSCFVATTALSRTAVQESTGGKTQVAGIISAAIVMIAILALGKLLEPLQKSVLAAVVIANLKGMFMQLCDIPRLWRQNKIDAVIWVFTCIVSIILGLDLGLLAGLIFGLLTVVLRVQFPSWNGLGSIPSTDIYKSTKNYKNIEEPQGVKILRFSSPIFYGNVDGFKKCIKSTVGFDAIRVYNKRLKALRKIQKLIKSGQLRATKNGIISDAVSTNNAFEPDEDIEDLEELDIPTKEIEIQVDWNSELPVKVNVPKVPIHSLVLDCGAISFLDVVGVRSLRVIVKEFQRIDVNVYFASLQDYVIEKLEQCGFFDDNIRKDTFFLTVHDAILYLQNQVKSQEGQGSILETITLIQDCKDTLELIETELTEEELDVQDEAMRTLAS
The assay can be described thus: YFP (EYFP-HIF) fluorescence quenching assay of pendrin-mediated Cl− exchange (SCN−, I−, NO3−) in FRT cells; high-throughput screen. It counts as cell-based. The arrangement: expressed in transfected cells. As to conditions: FRT, 25 μM; read-out: Inh. (%), percentage inhibition of human pendrin. As for the experimental part:
Fischer rat thyroid (FRT) cells were cultured in Kaign's modified Ham's F12 medium supplemented with 10% FBS, 2 mM L-glutamine, 100 U/ml penicillin, […], […] myo-inositol and […] ascorbic acid. For high-throughput screening, FRT cells were stably transfected with EYFP-H148Q/I152L/F46L (EYFP-HIF; in pcDNA3.1/Hygro (+)), isolated using 0.25 mg/ml hygromycin B, and then transfected with pcDNA3.1 (+) encoding human pendrin with clonal cell lines selected using 0.5 mg/ml G418.
High-throughput screening was performed using a semi-automated screening platform (Beckman, Fullerton, Calif.) configured as described. FRT cells expressing human pendrin and EYFP-HIF were plated in 96-well black-walled, clear-bottom tissue culture plates (Corning, Corning, N.Y.) at a density of 20,000 cells/well, and cultured to confluence over 48 h. For screening, plates were washed twice with PBS (in mM: 137 NaCl, 2.7 KCl, 1.1 KH2PO4, 8.1 Na2HPO4, 0.9 CaCl2), 0.5 MgCl2) prior to addition of 100 μl PBS containing test compounds. Screening was done with ˜36,000 compounds from ChemDiv (San Diego, Calif.), TimTec (Newark, Del.), and Asinex (Winston-Salem, N.C.). After 10 min incubation with test compound, plates were transferred to a Tecan Infinite M1000 plate reader (Tecan, Morrisville, N.C.) for fluorescence assay of pendrin activity. The assay duration was 10 s with initial fluorescence intensity recorded for 2 s prior to addition of 100 μl of NaSCN-substituted PBS (137 mM NaCl replaced with NaSCN). All assay plates contained negative controls (DMSO). In some experiments Cl^− exchange for I^− or NO3^− was measured similarly using NaI and NaNO3-substituted PBS. Control experiments to measure basal ion transport rates were done in FRT cells expressing EYFP-HIF without pendrin.
FRT cells were chosen for screening due to their low intrinsic permeability to anions that are transported by pendrin. As depicted in FIGS. 1A and 2A, pendrin activity was assayed from the kinetics of the halide-sensitive fluorescent protein EYFP-HIF in response to addition of a SCN^−-containing solution to drive pendrin-mediated Cl^−/SCN^−. Pendrin inhibition reduces the rate of EYFP-HIF quenching. PDSinh-A01 land PDSinh-C01 decreased pendrin-mediated Cl^−/SCN^− and Cl^−/I^− exchange in a concentration-dependent manner, as measured by YFP fluorescence quenching. […] Because the only previously-described pendrin inhibitor is the weakly active compound niflumic acid, no positive control was included in the screening plates.

Assay [2] concerns the target T2, pendrin (Mus musculus, UniProt Q9R155).
T2 sequence (Q9R155 1-780): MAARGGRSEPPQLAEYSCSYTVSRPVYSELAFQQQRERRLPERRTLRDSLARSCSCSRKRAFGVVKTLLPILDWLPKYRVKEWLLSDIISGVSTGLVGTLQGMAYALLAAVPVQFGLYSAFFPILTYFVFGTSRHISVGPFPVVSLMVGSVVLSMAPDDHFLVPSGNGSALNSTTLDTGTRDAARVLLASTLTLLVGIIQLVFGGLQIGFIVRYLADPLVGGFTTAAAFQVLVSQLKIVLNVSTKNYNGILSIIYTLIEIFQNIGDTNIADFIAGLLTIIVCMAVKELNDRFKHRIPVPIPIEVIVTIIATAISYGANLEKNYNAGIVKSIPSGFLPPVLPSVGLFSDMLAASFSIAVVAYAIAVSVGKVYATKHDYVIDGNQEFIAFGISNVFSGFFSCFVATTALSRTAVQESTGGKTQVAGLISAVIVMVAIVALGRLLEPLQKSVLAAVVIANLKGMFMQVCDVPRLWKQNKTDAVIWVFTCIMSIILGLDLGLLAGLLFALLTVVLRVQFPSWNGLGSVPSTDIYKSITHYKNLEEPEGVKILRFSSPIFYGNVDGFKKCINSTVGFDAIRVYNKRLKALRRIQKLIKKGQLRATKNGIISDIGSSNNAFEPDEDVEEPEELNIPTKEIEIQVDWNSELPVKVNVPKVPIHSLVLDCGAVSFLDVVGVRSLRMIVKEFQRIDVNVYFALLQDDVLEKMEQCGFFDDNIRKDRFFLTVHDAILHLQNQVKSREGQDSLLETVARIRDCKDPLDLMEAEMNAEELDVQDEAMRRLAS
Nature of the assay: In vitro measurement of furosemide effect on pendrin activity.

On to `COc1ccc(NC(=O)N2CCc3c(c(COc4ccccc4)nn3C)C2)cc1F`, for which the inhibition (usually the share of the control response that was lost under treatment) at 25 µM in assay [1] is 69%.
On the same count and under the same terms, the result for `Cc1ccc(NC(=O)N2CCc3c(c(COc4ccccc4)nn3C)C2)cc1` reads 61%; that for `Cn1nc(COc2ccccc2)c2c1CCN(C(=O)Nc1ccc(Cl)cc1)C2`, 72%; that for `CCc1ccc(NC(=O)N2CCc3c(c(COCc4ccc(F)cc4Cl)nn3C)C2)cc1`, 49%.
Same read-out and setting: the result for `Cc1ccc(NC(=O)N2CCc3c(c(COc4ccc(F)cc4)nn3C)C2)cc1Cl` reads 61%.
On to `NS(=O)(=O)c1cc(C(=O)O)c(NCc2ccco2)cc1Cl` [furosemide], for which, in assay [2], the “effect on pendrin activity” value is reported as “no effect”.
Consider `Cn1nc(COc2ccc(F)cc2)c2c1CCN(C(=O)Nc1cccc(C(F)(F)F)c1)C2`, for which the inhibition at 25 µM in assay [1] is 57%.
On the same count and under the same terms, the result for `CCc1ccc(NC(=O)N2CCc3c(c(COc4ccccc4)nn3C)C2)cc1` reads 54%; that for `COc1ccc(NC(=O)N2CCc3c(c(COc4ccc(F)cc4)nn3C)C2)cc1F`, 53%.
`CSc1cccc(NC(=O)N2CCc3c(c(COc4ccccc4)nn3C)C2)c1`: in assay [1], the inhibition at 25 µM was 45%.
Turning to `CSc1ccc(NC(=O)N2CCc3c(c(COc4ccccc4)nn3C)C2)cc1`, the inhibition at 25 µM in assay [1] was determined as 77%.
Same read-out and setting: the result for `Cc1ccc(NC(=O)N2CCc3c(c(COCc4cccc(F)c4)nn3C)C2)cc1Cl` reads 49%.
With `Cn1nc(COc2ccc(F)cc2)c2c1CCN(C(=O)Nc1ccc(F)c(Cl)c1)C2`, in assay [1], the inhibition at 25 µM worked out at 54%.
For `Cc1ccc(NC(=O)N2CCc3c(c(COCc4ccc(Cl)cc4)nn3C)C2)cc1C`, the inhibition at 25 µM in assay [1] worked out at 49%.
The same measure, in the same setting: the result for `Cn1nc(COc2cccc(F)c2)c2c1CCN(C(=O)Nc1cccc(Cl)c1)C2` reads 60%; that for `Cn1nc(COc2ccc(F)cc2)c2c1CCN(C(=O)Nc1ccc(Cl)cc1)C2`, 66%.
The same measure, in the same setting: the result for `Cc1cc(-c2cc(S(=O)(=O)NC3CCCc4ccccc43)c(C)s2)[nH]n1` (centres unmarked) reads 53%.
Regarding `Cc1ccc(NC(=O)N2CCc3c(c(COCc4ccc(F)cc4Cl)nn3C)C2)cc1C`, the inhibition at 25 µM in assay [1] amounted to 48%.
On to `Cc1ccc(NC(=O)N2CCc3c(c(COc4ccc(F)cc4)nn3C)C2)cc1C`, for which the inhibition at 25 µM in assay [1] was found to be 58%.
Take `Cc1ccc(NC(=O)N2CCc3c(c(COc4ccccc4)nn3C)C2)cc1C`: in assay [1], the inhibition at 25 µM is 64%.
